According to US20030059511A1, “Sweetener compositions and uses thereof” (AJINOMOTO CO., INC., priority 1999, published 2003):

Legend:
[1] = Taste characteristics in a cola drink (9 items, similarity index vs cola drink containing 10% sucrose); type: in vivo, human; details: non-carbonated cola drink, PSE 10%, vs cola drink with 10% sucrose; smaller = closer to sucrose; 8 panelists
Procedure: The following experiments were performed in the same way as that of Example 2. Instead of aqueous solution, the cola drink of each of derivatives 1 to 9 having a sweetness level equivalent to that of PSE 10% was prepared, and compared with the cola drink containing 10% sucrose. The evaluation method and so on were same as that of Example 2.
When carbon dioxide is blown in the cola drink, the carbonated cola drink is prepared, however, the taste of the cola drink can be compared more easily in that without carbon dioxide. Thus the sensory evaluation of non-carbonated cola drink was performed.
The composition of the cola drink employed was same as that of Example 1.
(§1) The similarity indexes were calculated as those of aqueous solutions. The smaller the similarity index becomes, the better the taste balances, and the closer the taste is to the taste characteristics (quality) of sucrose. The total taste becomes preferable. The similarity indexes of each derivatives are shown as follows. […]
The following experiments were conducted in the same way as that of Example 15. Instead of aqueous solution, the cola drink of each of derivatives 1 to 9 having a sweetness level equivalent to that of PSE 10% was prepared, and compared with the cola drink containing 10% sucrose. All of the evaluation method and so on were same as those of Example 15.
When carbon dioxide is blown in the cola drink, the carbonated cola drink is prepared, however, the taste of the cola drink can be compared more easily in that without carbon dioxide. Thus the non-carbonated cola drink was organoleptically evaluated.
The composition of the cola drink employed was same as that of Example 14.
as §1, with “(quality)of” for “(quality) of”, “each of the” for “each”

[2] = Magnification of sweetness intensity in the cola drink (sensory evaluation against sucrose cola drinks); type: in vivo, human
Description: And the magnification of sweetness intensity in the cola drink can be also determined by the same method compared to the control solution of cola drink containing 10% sucrose.
The composition of cola drink is as follows.
As for the concentration of the references, the sucrose concentrations of previous (a) to (e) were used. In consequence, the magnification of sweetness intensity in the cola drink of derivative 1 was 22600 times, and that of derivative 2 was 4900 times.
And the magnification of sweetness intensity in the cola drink can be also determined by the same method compared to the reference solution of cola drink containing 10% sucrose.
The components of cola drink is as follows.
As for the concentration of the references, the sucrose concentrations of previous (a) to (e) were used. As the results, the magnification of sweetness intensity in the cola drink of derivative 1 was 22600 times, and that of derivative 2 was 4900 times.
And the magnification of sweetness in the cola drink can be also determined by the same method compared to the control solution of cola drink containing 10% sucrose.
As for the concentration of the references, the sucrose concentrations of previous (a) to (e) were used. As a result, the magnification of sweetness intensity in the cola drink of derivative 1 was 22600 times, and that of derivative 2 was 4900 times.

[3] = Taste characteristics in an aqueous solution (9 items, similarity index vs aqueous 10% sucrose solution); type: in vivo, human; details: PSE 10%, smaller = closer to sucrose, 8 panelists
Procedure: The following experiments were performed using the water obtained by ion exchanging and further distilling the water.
An aqueous solution of each of derivatives 1 to 9 having a sweetness level equivalent to that of PSE 10% was prepared, and compared with aqueous 10% sucrose solution with respect to the following 9 items, i.e., “onset of the taste”, “round taste”, “clear taste”, “lingering taste”, “peculiar taste”, “heavy taste”, “bitter taste”, “astringent taste” and “irritation”. The results were determined as 5 levels (−2 point: very weak, −1 point: a little weak, 0 point: same, +1 point: a little strong, +2 point: very strong) by 8 panelists, and the average points were calculated. The sample solutions of the derivatives equivalent to PSE 10%, were prepared by using the magnification of sweetness intensity measured in Example 1, and the amounts of each derivatives to be used were as follows.
Next, the total of the absolute value of the deviation from sucrose in each of the evaluation items consisting of the onset of the taste, the round taste, the clear taste, the lingering taste, the peculiar taste, the heavy taste, the bitter taste, the astringent taste and the irritation was divided by 9 (total number of items) to calculate the similarity (which is referred to as “similarity index”). The smaller the similarity index becomes, the better the taste balances, and the closer the taste is to the taste characteristics (quality) of sucrose. The total taste becomes preferable. The similarity indexes of each derivatives are shown as follows.
To the aqueous solution of derivative 1 having a sweetness level equivalent to that of PSE 10%, salt was added as final concentratins of 0.1%, 0.2% and 0.5% to compare with the aqueous solution of 10% sucrose for by 2 points comparison method (n=8) and evaluate the characteristics of the taste.
The sensory evaluation was performed by the same way as Example 6.
The following experiments were conducted using the water obtained by ion exchanging and further distilling tap water.
An aqueous solution of each of derivatives 1 to 9 having a sweetness level equivalent to that of PES 10% was prepared, and compared with aqueous 10% sucrose solution with respect to 9 items, namely, “the onset of the taste”, “round taste”, “clear taste”, “lingering taste”, “peculiar taste”, “heavy taste”, “bitter taste”, “astringent taste” and “irritation”. The results were determined as 5 levels (−2 point: very weak, −1 point: a little weak, 0 point: same, +1 point: a little strong, +2 point: very strong) by 8 panelists, and the average points were calculated.
Next, the total of the absolute value of the deviation from sucrose in each of the evaluation items consisting of onset of the taste, round taste, clear taste, lingering taste, peculiar taste, heavy taste, bitter taste, astringent taste and irritation was divided by 9 (total number of items) to calculate the similarity (which is refer to as “similarity index”). The smaller the similarity index becomes, the better the taste balances, and the closer the taste is to the taste characteristics (quality) of sucrose. The total taste becomes preferable. The similarity indexes of each of the derivatives are shown as follows.

[4] = Measurement of the magnification of sweetness intensity in aqueous solution (sensory evaluation against sucrose solutions); type: in vivo, human; details: aqueous solution
Procedure: (§2) An aqueous solution was prepared by diluting derivative 2 to be PSE 10% concentration (15.5 mg/1000 ml=10/6500 g/100 ml), assuming that the intensity of sweetness of derivative 2 was 6500 times that of sucrose. Separately, aqueous sucrose solutions having sucrose concentrations of (a)6.94%, (b)8.33%, (c)10%, (d)12%, and (e)14.4% were prepared. The sensory evaluation was performed by determining which sucrose solution was closest to the solution of derivative 2 in the sweetness intensity. The result of calculation of the average of points of 20 panelists was 2.25 point.
(§3) The intensity of sweetness of the solution of derivative 2 was 8.75% according to the following equation: (10.0−8.33)×0.25+8.33=8.75. Accordingly, the intense sweetness of derivative 2 was 5600 (=8.75/0.00155) times that of sucrose. According to the same experiment, the intensity of sweetness of derivative 1 was 22600 times that of sucrose. Furthermore, the magnification of sweetness intensity of other derivatives (3 to 9) can be determined by the same method.
as §3, with “intensity of” for “intense”
as §2, with “intense” for “intensity of”
The sweetness intensity of the solution of derivative 2 was 8.75% according to the following equation: (10.0−8.33)×0.25+8.33=8.75. Therefore, the magnification of sweetness intensity of derivative 2 was 5600 (=8.75/0.00155) times that of sucrose. When the same experiment was performed, the magnification of sweetness intensity of derivative 1 was 22600 times that of sucrose.

[5] = Equivalent concentration of bitter taste, sensory evaluation, mixed amino acids (Example 29); type: in vivo, human; details: 2% mixed amino acids; addition: Derivative 2 10 ppm, Glycyrrhizin 250 ppm, Sucrose 50000 ppm; no addition 0.105
Procedure: With respect to the solution produced by adding derivative 1 (the product of the present invention), or adding nothing (no addition; the reference product) in the concentration shown in the following table 4 to the amino acid solution (2% solution of arginine by weight), the sensory evaluation was performed (using 10 panelists), and the equivalent concentration of bitter taste was determined. The results were shown in the table 4, wherein the equivalent concentration of bitter taste was shown in the concentration of aqueous solution of anhydrous caffeine which is a substance of bitter taste.
With respect to the solution produced by adding derivative 2, Glycyrrhizin or sucrose (the product of the present invention), or adding nothing (no addition; the-reference product) to 2% (by weight) solution of the mixed amino acids (leucine:valine:isoleucine=1:0.5:0.5 by weight), the sensory evaluation was performed (using 10 panelists), and the equivalent concentration of bitter taste was determined in the same way as that described in Example 28, and shown in the table 5.

[6] = cited from earlier work

Structure (SMILES) | Similarity index [1] | Amount equivalent to PSE 10% [2] [mg/1000 ml] | Similarity index [3] | Amount equivalent to PSE 10% [4] [mg/1000 ml] | Equivalent concentration of bitter taste [5] [g/100 g] | magnification used for the sweetness intensity of the another sweetener with a high intense sweetness ([6]; values used for calculation in Example 5) [times] | magnification of sweetness intensity (numerical values in brackets) ([6]; values used for calculation in Example 17, sucrose = 1)
COC(=O)[C@H](Cc1ccccc1)NC(=O)[C@H](CC(=O)O)NCCC(C)(C)c1ccc(OC)c(O)c1 [Derivative 3, N-[N-[3-(3-hydroxy-4-methoxyphenyl)-3-methylbutyl]-L-α-aspartyl]-L-phenylalanine 1-methyl ester] | 1.11 | 2.7 | 1.04 | 2.3 | – | – | –
COC(=O)[C@H](Cc1ccccc1)NC(=O)[C@H](CC(=O)O)NCCC(C)(C)c1ccc(OC)cc1 [Derivative 5, N-[N-[3-(4-methoxyphenyl)-3-methylbutyl] -L-α-aspartyl] -L-phenylalanine 1-methyl ester] | 1.34 | 12.5 | 1.38 | 11.9 | – | – | –
COC(=O)[C@H](Cc1ccccc1)NC(=O)[C@H](CC(=O)O)NCCCc1ccc(OC)cc1O [Derivative 7, N-[N-[3-(2-hydroxy-4-methoxyphenyl)propyl]-L-α-aspartyl]-L-phenylalanine 1-methyl ester] | 0.90 | 9.4 | 0.86 | 9.0 | – | – | –
COC(=O)[C@H](Cc1ccccc1)NC(=O)[C@H](CC(=O)O)NCCCc1ccc(O)cc1O [Derivative 9, N-[N-[3-(2,4-dihydroxyphenyl)propyl]-L-α-aspartyl]-L-phenylalanine 1-methyl ester] | 1.00 | 13.3 | 0.77 | 12.5 | – | – | –
CC1(C)[C@@H](O[C@H]2O[C@H](C(=O)O)[C@@H](O)[C@H](O)[C@H]2O[C@@H]2O[C@H](C(=O)O)[C@@H](O)[C@H](O)[C@H]2O)CC[C@]2(C)[C@H]3C(=O)C=C4[C@@H]5C[C@@](C)(C(=O)O)CC[C@]5(C)CC[C@@]4(C)[C@]3(C)CC[C@@H]12 [Glycyrrhizin] | – | – | – | – | 0.105 | 170 | –
OC[C@H]1O[C@@](CO)(O[C@H]2O[C@H](CO)[C@@H](O)[C@H](O)[C@H]2O)[C@@H](O)[C@@H]1O [Sucrose] | 0 | – | – | – | 0.067 | – | 1
